For this experiment, the target named is cIAP1 BIR3 (Homo sapiens (Human), UniProt Q13490). The experiment in a line: cIAP1 BIR3 binding assay (DELFIA), BIR3 domain-SMAC peptide interaction. As for the experimental part: XIAP BIR3 and cIAP1 BIR3 Binding Assays (DELFIA)
Peptide […]-Lys(Biotin), representing the N-terminus of mature human SMAC(SMAC peptide), was used as interaction partner in the protein-peptide interaction assay.
BIR3 domains (10 nM) were incubated with SMAC peptide (10 nM) in assay buffer (50 mM Tris, 120 mM NaCl, 0.1% BSA, 1 mM DTT, 0.05% TritonX100) for one hour at room temperature in the presence of inhibitory compounds. The assay mixture was transferred to a strepatvidin coated plate and incubated for one hour at room temperature to allow binding of the biotinylated peptide and associated BIR3 domains to the plate. After several washing steps Eu labeled anti-GST antibody (e.g. Perkin Elmer DELFIA Eu-N1-antiGST AD0250) was added to detect BIR3 domain-SMAC peptide interactions according to Perkin Elmer's instructions. […] Time resolved Europium fluorescence was measured in a Wallac Victor using Standard assay settings.
DELFIA assay results were plotted against compound concentrations and Software GraphPad Prizm was used to calculate half maximal inhibitory concentrations (IC50 values).

[1] abbreviates: BIR3 domain 10 nM, SMAC peptide 10 nM, (S)-isomer (examples 1-34, 38-43) or racemate (examples 35-37), read-out: cIAP1 BIR-3 IC50.

Where two headings read alike, the source gives them in different places.

What is called IC50 is the concentration at which inhibition is half-maximal. Take `CNC(C)C(=O)Nc1cc(-c2ccncc2)c(-c2cncnc2)c(C#Cc2ccccc2)n1` (racemic) [Example 35, 2-(methylamino)-N-[6-(2-phenylethynyl)-4-(pyridin-4-yl)-5-(pyrimidin-5-yl)pyridin-2-yl]propanamide]: the IC50 under setting [1] turned out to be 250 nM.
Still for that read-out and setting: then `CNC(C)C(=O)Nc1cc(-c2cccnc2)c(-c2cncnc2)c(C#Cc2ccccc2)n1` (racemic) [Example 36, 2-(methylamino)-N-[6-(2-phenylethynyl)-4-(pyridin-3-yl)-5-(pyrimidin-5-yl)-pyridin-2-yl]propanamide], with 172 nM; and `CCNC(CC)C(=O)Nc1cc(-c2ncnc3c(C)nn(C)c23)cc(C#Cc2ccc3c(C)nccc3c2)n1` (racemic) [Example 37, N-(4-{1,3-dimethyl-1H-pyrazolo[4,3-d]pyrimidin-7-yl}-6-[2-(1-methylisoquinolin-6-yl)ethynyl]pyridin-2-yl)-2-(ethylamino)butanamide], with 6 nM.
Same read-out and setting: with `CNC(C)C(=O)Nc1cc(-c2ncnc3c(C)nn(C)c23)cc(C#Cc2ccc3c(cnn3C)c2)n1` (stereo not shown) [Example 1, N-(4-{1,3-dimethyl-1H-pyrazolo[4,3-d]pyrimidin-7-yl}-6-[2-(1-methyl-1H-indazol-5-yl)ethynyl]pyridin-2-yl)-2-(methylamino)propanamide] the figure was 1 nM.
Same read-out and setting: with `CNC(C)C(=O)Nc1cc(-c2ncnc3c(C)nn(C)c23)cc(C#Cc2ccc3c(C)nccc3c2)n1` (stereo not shown) [Example 2, N-(4-{1,3-dimethyl-1H-pyrazolo[4,3-d]pyrimidin-7-yl}-6-[2-(1-methylisoquinolin-6-yl)ethynyl]pyridin-2-yl)-2-(methylamino)propanamide] the figure was 1 nM; with `CNC(C)C(=O)Nc1cc(-c2ncnc3c(C)nn(C)c23)cc(C#Cc2cc(C)nc3c(F)cccc23)n1` (stereo not shown) [Example 3, N-(4-{1,3-dimethyl-1H-pyrazolo[4,3-d]pyrimidin-7-yl}-6-[2-(8-fluoro-2-methylquinolin-4-yl)ethynyl]pyridin-2-yl)-2-(methylamino)propanamide], 1 nM; with `CNC(C)C(=O)Nc1cc(-c2ncnc3c(C)nn(C)c23)cc(C#Cc2ccn3c(C)ncc3c2)n1` (stereo not shown) [Example 4, N-(4-{1,3-dimethyl-1H-pyrazolo[4,3-d]pyrimidin-7-yl}-6-(2-{3-methylimidazo[1,5-a]pyridin-7-yl}ethynyl)pyridin-2-yl)-2-(methylamino)propanamide], 1 nM.
Consider `CNC(C)C(=O)Nc1cc(-c2c(OC)ccc3nc(C)ccc23)cc(C#Cc2ccccc2)n1` (stereo not shown) [Example 5, N-[4-(6-methoxy-2-methylquinolin-5-yl)-6-(2-phenylethynyl)pyridin-2-yl]-2-(methylamino)propanamide], for which, under setting [1], the IC50 turned out to be 59 nM.
`CNC(C)C(=O)Nc1cc(-c2ncnc3ncn(C)c23)cc(C#Cc2ccc3c(C)nccc3c2)n1` (stereo not shown) [Example 6, N-[4-(7-methyl-7H-purin-6-yl)-6-[2-(1-methylisoquinolin-6-yl)ethynyl]pyridin-2-yl]-2-(methylamino)propanamide]: the IC50 is 1 nM.
Take `CNC(C)C(=O)Nc1cc(-c2ncnc3ncn(C)c23)cc(C#Cc2ccccc2)n1` (stereo not shown) [Example 7, N-[4-(7-methyl-7H-purin-6-yl)-6-(2-phenylethynyl)pyridin-2-yl]-2-(methylamino)propanamide]: the half-inhibitory concentration (IC50) came to 2 nM.
Still for that read-out and setting: then `CNC(C)C(=O)Nc1cc(-c2ncnc3ncn(C)c23)cc(C#Cc2ccc3c(ccc(=O)n3C)c2)n1` (stereo not shown) [Example 8, N-{6-[2-(1-methyl-2-oxo-1,2-dihydroquinolin-6-yl)ethynyl]-4-(7-methyl-7H-purin-6-yl)pyridin-2-yl}-2-(methylamino)propanamide], with 1 nM; and `CNC(C)C(=O)Nc1cc(-c2ncnc3ncn(C)c23)cc(C#Cc2ccc(-n3cnc(C)c3)cc2)n1` (stereo not shown) [Example 9, N-(6-{2-[4-(4-methyl-1H-imidazol-1-yl)phenyl]ethynyl}-4-(7-methyl-7H-purin-6-yl)pyridin-2-yl)-2-(methylamino)propanamide], with 2 nM.
With `CNC(C)C(=O)Nc1cc(-c2ncnc3oc(C)c(C)c23)cc(C#Cc2ccccc2)n1` (stereo not shown) [Example 10, N-(4-{5,6-dimethylfuro[2,3-d]pyrimidin-4-yl}-6-(2-phenylethynyl)pyridin-2-yl)-2-(methylamino)propanamide], the IC50 under setting [1] turned out to be 2 nM.
On the same count and under the same terms, then `CNC(C)C(=O)Nc1cc(-c2cccc3nc(C)c(C)n23)cc(C#Cc2ccc3c(C)nccc3c2)n1` (stereo not shown) [Example 11, N-(4-{2,3-dimethylimidazo[1,2-a]pyridin-5-yl}-6-[2-(1-methylisoquinolin-6-yl)ethynyl]pyridin-2-yl)-2-(methylamino)propanamide], with 1 nM; and `CNC(C)C(=O)Nc1cc(-c2cccc3cnn(C)c23)cc(C#Cc2ccc3c(c2)CC(=O)N3C)n1` (stereo not shown) [Example 12, N-[4-(1-methyl-1H-indazol-7-yl)-6-[2-(1-methyl-2-oxo-2,3-dihydro-1H-indol-5-yl)ethynyl]pyridin-2-yl]-2-(methylamino)propanamide], with 11 nM; and `CNC(C)C(=O)Nc1cc(-c2cnc3cccc(C)n23)cc(C#Cc2ccc3c(C)nccc3c2)n1` (stereo not shown) [Example 13, 2-(methylamino)-N-(4-{5-methylimidazo[1,2-a]pyridin-3-yl}-6-[2-(1-methylisoquinolin-6-yl)ethynyl]pyridin-2-yl)propanamide], with 1 nM.
`CNC(C)C(=O)Nc1cc(-c2c(C)nc(C)c3c(=O)n(C)n(C)c23)cc(C#Cc2ccc3c(C)nccc3c2)n1` (stereo not shown) [Example 14, 2-(methylamino)-N-{6-[2-(1-methylisoquinolin-6-yl)ethynyl]-4-{1,2,4,6-tetramethyl-3-oxo-1H,2H,3H-pyrazolo[4,3-c]pyridin-7-yl}pyridin-2-yl}propanamide]: the IC50 under setting [1] is 1 nM.
`CNC(C)C(=O)Nc1cc(-c2nc(C)nc3c(C)nn(C)c23)cc(C#Cc2ccc3c(ccc(=O)n3C)c2)n1` (stereo not shown) [Example 15, N-{6-[2-(1-methyl-2-oxo-1,2-dihydroquinolin-6-yl)ethynyl]-4-{trimethyl-1H-pyrazolo[4,3-d]pyrimidin-7-yl}pyridin-2-yl}-2-(methylamino)propanamide]: the IC50 under setting [1] was 1 nM.
On the same count and under the same terms, then `CNC(C)C(=O)Nc1cc(-c2nc(C)nc3nn(C)c(C)c23)cc(C#Cc2ccc3c(C)nccc3c2)n1` (stereo not shown) [Example 18, 2-(methylamino)-N-{6-[2-(1-methylisoquinolin-6-yl)ethynyl]-4-{trimethyl-2H-pyrazolo[3,4-d]pyrimidin-4-yl}pyridin-2-yl}-propanamide], with 1 nM; and `CNC(C)C(=O)Nc1cc(-c2nc(C)nc3nn(C)c(C)c23)cc(C#Cc2ccc3c(ccc(=O)n3C)c2)n1` (stereo not shown) [Example 19, N-{6-[2-(1-methyl-2-oxo-1,2-dihydroquinolin-6-yl)ethynyl]-4-{trimethyl-2H-pyrazolo[3,4-d]pyrimidin-4-yl}pyridin-2-yl}-2-(methylamino)propanamide], with 2 nM; and `CNC(C)C(=O)Nc1cc(-c2nc(C)nc3nn(C)c(C)c23)cc(C#Cc2ccc3c(cnn3C)c2)n1` (stereo not shown) [Example 20, N-{6-[2-(1-methyl-1H-indazol-5-yl)ethynyl]-4-{trimethyl-2H-pyrazolo[3,4-d]pyrimidin-4-yl}pyridin-2-yl}-2-(methylamino)-propanamide], with 1 nM.
The same measure, in the same setting: with `CNC(C)C(=O)Nc1cc(-c2nc(C)nc3nn(C)c(C)c23)cc(C#Cc2cnc(-n3cnc(C)c3)nc2)n1` (stereo not shown) [Example 21, N-(6-{2-[2-(4-methyl-1H-imidazol-1-yl)pyrimidin-5-yl]ethynyl}-4-{trimethyl-2H-pyrazolo[3,4-d]pyrimidin-4-yl}pyridin-2-yl)-2-(methyl-amino)propanamide] the figure was 1 nM; with `CNC(C)C(=O)Nc1cc(-c2nc(C)nc3nn(C)c(C)c23)cc(C#Cc2cccs2)n1` (stereo not shown) [Example 22, 2-(methylamino)-N-{6-[2-(thiophen-2-yl)ethynyl]-4-{trimethyl-2H-pyrazolo[3,4-d]pyrimidin-4-yl}pyridin-2-yl}propanamide], 1 nM; with `CNC(C)C(=O)Nc1cc(-c2cccc3cnn(C)c23)c(Cl)c(C#Cc2ccc3c(C)nccc3c2)n1` (stereo not shown) [Example 24, N-[5-chloro-4-(1-methyl-1H-indazol-7-yl)-6-[2-(1-methylisoquinolin-6-yl)ethynyl]pyridin-2-yl]-2-(methylamino)propanamide], 12 nM.
On the same count and under the same terms, then `CNC(C)C(=O)Nc1cc(-c2cccc3cnn(C)c23)c(OC)c(C#Cc2ccccc2)n1` (stereo not shown) [Example 26, N-[5-methoxy-4-(1-methyl-1H-indazol-7-yl)-6-(2-phenylethynyl)pyridin-2-yl]-2-(methylamino)propanamide], with 12 nM; and `CNC(C)C(=O)Nc1cc(-c2cccc3ncccc23)c(OC)c(C#Cc2ccccc2)n1` (stereo not shown) [Example 27, N-[5-methoxy-6-(2-phenylethynyl)-4-(quinolin-5-yl)pyridin-2-yl]-2-(methyl-amino)propanamide], with 136 nM; and `CNC(C)C(=O)Nc1cc(-c2ccncc2)cc(C#Cc2ccccc2)n1` (stereo not shown) [Example 28, 2-(methylamino)-N-[6-(2-phenylethynyl)-4-(pyridin-4-yl)pyridin-2-yl]propanamide], with 282 nM.
Regarding `CNC(C)C(=O)Nc1cc(-c2cncc(F)c2)cc(C#Cc2ccccc2)n1` (stereo not shown) [Example 29, N-[4-(5-fluoropyridin-3-yl)-6-(2-phenylethynyl)pyridin-2-yl]-2-(methylamino)propanamide], the half-inhibitory concentration (IC50) under setting [1] was 127 nM.

These data come from US9278978B2, “6-Alkynyl Pyridine” (Boehringer Ingelheim International GmbH, priority 2013, dated 2016).
